According to patent publication US20080268451A1, “MEASUREMENT OF AN INSOLUBLE ANALYTE IN A SAMPLE” (priority 2007, published 2008):

Assays:
Cyp1A1 = assay: qNPA gene expression, rifampicin-treated canine hepatocytes; type: cell-based; conditions: 0-10 μM rifampicin
Cyp2D6 = assay: qNPA gene expression, rifampicin-treated human primary liver cells; conditions: 0-10 μM rifampicin
Cyp2A337 = conditions: canine hepatocytes, 0-10 μM rifampicin, qNPA
Cyp2D15 = assay: qNPA gene expression, rifampicin-treated canine hepatocytes; type: cell-based; conditions: 0-10 μM rifampicin
Cyp2B6 = assay: qNPA gene expression, rifampicin-treated human primary liver cells; conditions: 0-10 μM rifampicin

CO[C@H]1/C=C/O[C@@]2(C)Oc3c(C)c(O)c4c(O)c(c(/C=N/N5CCN(C)CC5)c(O)c4c3C2=O)NC(=O)/C(C)=C\C=C\[C@H](C)[C@H](O)[C@@H](C)[C@@H](O)[C@@H](C)[C@H](OC(C)=O)[C@@H]1C [rifampicin] was tested, and the Cyp1A1 gene expression (Cyp1A1) was “upregualted”, the Cyp2D6 transcript level (Cyp2D6; qNPA) was “suppressed” and the “suppression of Cyp2D6” value (Cyp2D6; qNPA (Panel a of FIG. 27)) was “less than 50%”. The Cyp2A337 gene expression (Cyp2A337) was “upregualted”, the Cyp2D15 gene expression (Cyp2D15) was “upregualted” and the “Cyp2B6 transcript level (enzyme induction)” value (Cyp2B6) was “induced”.
